Counter-ions that a name gives are not always drawn. Like-named read-outs stand apart in the source and are kept apart here. Where only a bound is given, the exact number is not on record here.

The target of one assay is T1, human alpha thrombin (Homo sapiens, UniProt P00734).
T1 construct: Purified human alpha-thrombin; purchased Enzyme Research Laboratories, Inc
Kind of assay: Thrombin (fIIa) IC50 assay, chromogenic substrate Pefachrome t-PA. The class given is biochemical. As to the method: (§1) The ability of compounds of the present invention to act as a selective inhibitor of thrombin catalytic activity was assessed by determining the concentration of compound which inhibited the activity of this enzyme by 50%, (IC50), and comparing this value to that determined for all or some of the following related serine proteases: recombinant tissue plasminogen activator (rt-PA), plasmin, activated protein C, chymotrypsin, factor Xa and trypsin.
(§2) The buffer used for all assays was HBSA (10 mM HEPES, pH 7.5, 150 mM sodium chloride, 0.1% bovine serum albumin).
(§3) The assay for IC50 determinations was conducted by combining in appropriate wells of a Corning microtiter plate, 50 microliters of HBSA, 50 microliters of the test compound at a specified concentration (covering a broad concentration range) diluted in HBSA (or HBSA alone for VO (uninhibited velocity) measurement), and 50 microliters of the enzyme diluted in HBSA. Following a 30 minute incubation at ambient temperature, 50 microliters of the substrate at the concentrations specified below were added to the wells, yielding a final total volume of 200 microliters. The initial velocity of chromogenic substrate hydrolysis was measured by the change in absorbance at 405 nm using a Thermo Max® Kinetic Microplate Reader over a 5 minute period in which less than 5% of the added substrate was utilized. The concentration of added inhibitor which caused a 50% decrease in the initial rate of hydrolysis was defined as the IC50 value.
Enzyme activity was determined using the chromogenic substrate, Pefachrome t-PA (CH3SO2-D-hexahydrotyrosine-glycyl-L-Arginine-p-nitroaniline, obtained from Pentapharm Ltd.). The substrate was reconstituted in deionized water prior to use. Purified human a-thrombin was obtained from Enzyme Research Laboratories, Inc. The buffer used for all assays was HBSA (10 mM HEPES, pH 7.5, 150 mM sodium chloride, 0.1% bovine serum albumin).
IC50 determinations were conducted where HBSA ([…]), a-thrombin (50 μl) and inhibitor (50 μl) (covering a broad concentration range), were combined in appropriate wells and incubated for 30 minutes at room temperature prior to the addition of substrate Pefachrome-t-PA (50 μl). The initial velocity of Pefachrome t-PA hydrolysis was measured by the change in absorbance at 405 nm using a Thermo Max® Kinetic Microplate Reader over a 5 minute period in which less than 5% of the added substrate was utilized. The concentration of added inhibitor which caused a 50% decrease in the initial rate of hydrolysis was defined as the IC50 value.

The target in the next assay is T2, Human rt-PA (Activase) (Homo sapiens, UniProt P00750).
T2 construct: purchased Genentech Inc
Kind of assay: biochemical. As to conditions: 30 minute incubation. As to the method:
as §1, §2, §3
Recombinant Tissue Plasminogen Activator (rt-PA) Assay
rt-PA catalytic activity was determined using the substrate, Pefachrome t-PA (CH3SO2-D-hexahydrotyrosine-glycyl-L-arginine-p-nitroaniline, obtained from Pentapharm Ltd.). The substrate was made up in deionized water followed by dilution in HBSA prior to the assay in which the final concentration was 500 micromolar (about 3-times Km). Human rt-PA (Activase®) was obtained from Genentech Inc. The enzyme was reconstituted in deionized water and diluted into HBSA prior to the assay in which the final concentration was 1.0 nM.

The target in a further assay is human plasmin (Homo sapiens, UniProt P00747). In words: biochemical. As to the method: as §1, §2, §3
Plasmin catalytic activity was determined using the chromogenic substrate, S-2366 [L-pyroglutomyl-L-prolyl-L-arginine-p-nitroaniline hydrochloride], which was obtained from Pharmacia-Upjohn. The substrate was made up in deionized water followed by dilution in HBSA prior to the assay in which the final concentration was 300 micromolar (about 2.5-times Km). Purified human plasmin was obtained from Enzyme Research Laboratories, Inc. The enzyme was diluted into HBSA prior to assay in which the final concentration was […].

A further assay has as its target T3, human aPC (Homo sapiens, UniProt P04070).
T3 construct: purchased Hematologic Technologies, Inc
Kind of assay: biochemical. As to conditions: 30 minute incubation. As to the method: as §2
Following a 30 minute incubation at ambient temperature, 50 microliters of the substrate at the concentrations specified below were added to the wells, yielding a final total volume of 200 microliters.
Activated Protein C (aPC) Assay
aPC catalytic activity was determined using the chromogenic substrate, Pefachrome PC (delta-carbobenzloxy-D-lysine-L-prolyl-L-arginine-p-nitroaniline dihydrochloride), obtained from Pentapharm Ltd.). […] Purified human aPC was obtained from Hematologic Technologies, Inc. The enzyme was diluted into HBSA prior to assay in which the final concentration was 1.0 nM.

[1] abbreviates: 30 minute incubation, read-out: Plasmin IC50 (Table 3B).
Setting [2] is: read-out: rt-PA (IC50) (Table 3A).
Setting [3] is: 30 minute incubation, read-out: Plasmin (IC50) (Table 3A).
The mark [4] stands for this setting: read-out: aPC (IC50) (Table 3A).
Where [5] appears, read: 1.0 nM enzyme, read-out: IC50 rt-PA (Table 2).
Where [6] appears, read: 30 minute incubation, read-out: IC50 Plasmin (Table 2).
[7] abbreviates: 1.0 nM enzyme, read-out: IC50 aPC (Table 2).

human plasmin, sequence (P00747 97-580): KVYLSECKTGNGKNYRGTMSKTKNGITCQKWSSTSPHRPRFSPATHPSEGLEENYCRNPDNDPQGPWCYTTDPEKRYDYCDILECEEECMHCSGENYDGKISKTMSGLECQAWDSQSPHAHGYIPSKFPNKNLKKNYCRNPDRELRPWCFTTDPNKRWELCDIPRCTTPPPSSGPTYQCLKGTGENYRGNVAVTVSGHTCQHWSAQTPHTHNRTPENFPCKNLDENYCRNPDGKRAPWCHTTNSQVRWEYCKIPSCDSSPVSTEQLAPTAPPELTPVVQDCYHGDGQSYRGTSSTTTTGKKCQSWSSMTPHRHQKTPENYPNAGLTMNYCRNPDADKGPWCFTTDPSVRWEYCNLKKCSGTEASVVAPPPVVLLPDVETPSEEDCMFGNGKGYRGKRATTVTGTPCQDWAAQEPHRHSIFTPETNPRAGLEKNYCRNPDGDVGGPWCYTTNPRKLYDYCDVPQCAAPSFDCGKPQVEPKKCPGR
human plasmin, sequence (P00747 581-810): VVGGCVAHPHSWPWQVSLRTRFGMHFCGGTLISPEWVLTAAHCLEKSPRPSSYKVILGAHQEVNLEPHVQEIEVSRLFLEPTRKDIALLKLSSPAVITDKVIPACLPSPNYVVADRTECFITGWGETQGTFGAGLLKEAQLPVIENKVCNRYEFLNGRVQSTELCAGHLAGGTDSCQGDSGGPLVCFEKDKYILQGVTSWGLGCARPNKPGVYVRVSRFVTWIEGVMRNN
T2 sequence (P00750 36-562): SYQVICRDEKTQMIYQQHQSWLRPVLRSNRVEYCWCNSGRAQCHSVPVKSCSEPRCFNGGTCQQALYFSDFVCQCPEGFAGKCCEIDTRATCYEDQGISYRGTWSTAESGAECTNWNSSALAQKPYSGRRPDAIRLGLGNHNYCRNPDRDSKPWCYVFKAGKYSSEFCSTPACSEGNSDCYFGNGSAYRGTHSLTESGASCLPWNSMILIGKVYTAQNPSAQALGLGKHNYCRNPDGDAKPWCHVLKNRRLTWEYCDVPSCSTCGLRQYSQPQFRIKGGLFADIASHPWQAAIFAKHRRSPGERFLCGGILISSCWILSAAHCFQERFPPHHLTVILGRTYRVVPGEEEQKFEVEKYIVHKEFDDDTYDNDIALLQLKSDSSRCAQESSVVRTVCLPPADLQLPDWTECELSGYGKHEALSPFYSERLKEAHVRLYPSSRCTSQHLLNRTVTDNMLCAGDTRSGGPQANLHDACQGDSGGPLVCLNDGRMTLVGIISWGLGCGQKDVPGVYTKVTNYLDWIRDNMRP
T3 sequence (P04070 43-197): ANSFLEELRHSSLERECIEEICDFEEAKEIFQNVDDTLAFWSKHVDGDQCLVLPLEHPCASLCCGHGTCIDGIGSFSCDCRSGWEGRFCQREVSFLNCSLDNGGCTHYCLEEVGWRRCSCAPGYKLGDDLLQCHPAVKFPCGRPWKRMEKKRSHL
T3 sequence (P04070 212-461): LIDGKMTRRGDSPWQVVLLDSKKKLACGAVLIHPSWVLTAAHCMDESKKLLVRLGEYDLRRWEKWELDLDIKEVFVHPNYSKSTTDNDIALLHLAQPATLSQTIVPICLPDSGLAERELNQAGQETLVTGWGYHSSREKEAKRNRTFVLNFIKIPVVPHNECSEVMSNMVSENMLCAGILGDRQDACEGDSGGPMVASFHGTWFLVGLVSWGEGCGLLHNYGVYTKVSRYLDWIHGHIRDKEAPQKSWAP

Take `N=C(N)NCCC[C@@H](C=O)NC(=O)Cn1cccc(NS(=O)(=O)Cc2cc(F)ccc2F)c1=O` [Compound 121P, [3-(2,5-difluorobenzyl)sulfonylamino-2-oxo-1,2-dihydropyridyl]acetyl-L-argininal]: the results for the IC50 at human alpha thrombin, on Human rt-PA (Activase) (read-out: rtPA IC50 (Table 3B)) and at human plasmin (setting [1]) were 1.73 nM, greater than 2500 nM and greater than 2500 nM, respectively. The “aPC IC50 (Table 3B)” value at human aPC was “inactive”.

In the case of `Cc1ccc(F)cc1S(=O)(=O)Nc1ccc(C)n(CC(=O)N[C@H](C=O)CCCNC(=N)N)c1=O` [Compound 126B, [3-(5-fluoro-2-methylphenyl)sulfonylamino-6-methyl-2-oxo-1,2-dihydro-pyridyl]acetyl-L-argininal], the IC50 – broadly, the concentration that gives 50% inhibition – at human alpha thrombin was 0.882 nM; on human plasmin (setting [1]), greater than 2500 nM. Further, the “rtPA IC50 (Table 3B)” value on Human rt-PA (Activase) is “inactive”. In addition, at human aPC, the “aPC IC50 (Table 3B)” value was “inactive”.

With `N=C(N)NCCC[C@@H](C=O)NC(=O)Cn1cccc(NS(=O)(=O)Cc2ccccc2F)c1=O` [Compound 121J], the IC50 against human alpha thrombin was 0.763 nM; at Human rt-PA (Activase) (read-out: rtPA IC50 (Table 3B)), greater than 2500 nM; on human plasmin (setting [1]), greater than 2500 nM. Moreover, the “aPC IC50 (Table 3B)” value at human aPC is “inactive”.

With `COc1ccc(Cl)cc1S(=O)(=O)Nc1cccn(CC(=O)NC(C=O)CCCNC(=N)N)c1=O` [2-OMe, 5-Cl-phenyl, (5-chloro-2-methoxy-phenylsulfonyl-3-amino-2-oxo-1,2-dihydropyridyl)acetyl-L-Argininal, trifluoroacetate salt], the IC50 at human alpha thrombin is 1.16 nM; at Human rt-PA (Activase) (setting [2]) it was greater than 2500 nM; at human plasmin (setting [3]), greater than 2500 nM; at human aPC (setting [4]) it was greater than 2500 nM.

Take `Cc1cccc(S(=O)(=O)Nc2cccn(CC(=O)N[C@H](C=O)CCCNC(=N)N)c2=O)c1` [Compound 3-Me-phenyl, [3-(3-methyiphenyl)sulfonylamino-2-oxo-1,2-dihydro-pyridyl]acetyl-L-argininal]: the IC50 was 0.85 nM against human alpha thrombin, greater than 2500 nM at Human rt-PA (Activase) (setting [2]), greater than 2500 nM at human plasmin (setting [3]) and greater than 2500 nM on human aPC (setting [4]).

For the compound `CCc1ccc(NS(=O)(=O)c2cc(F)ccc2C)c(=O)n1CC(=O)N[C@H](C=O)CCCNC(=N)N` [Compound 126F, [3-(5-fluoro-2-methylphenyl)sulfonylamino-6-ethyl-2-oxo-1,2-dihydro-pyridyl]acetyl-L-argininaln], the results for the IC50 on human alpha thrombin and on human plasmin (setting [1]) were 0.71 nM and roughly 2500 nM, respectively. For the same compound, the “rtPA IC50 (Table 3B)” value at Human rt-PA (Activase) is “inactive”. For the same compound, the “aPC IC50 (Table 3B)” value at human aPC was “inactive”.

In the case of `COc1cccc(S(=O)(=O)Nc2ccc(C)n(CC(=O)N[C@H](C=O)CCCNC(=N)N)c2=O)c1` [Compound 153A, [3-(3-methoxylphenyl)sulfonylamino-6-methyl-2-oxo-1,2-dihydro-pyridyl]acetyl-L-argininal], the IC50 on human alpha thrombin (30 minute incubation, read-out: Thrombin IC50 (Table 3C)) is 0.456 nM; at Human rt-PA (Activase) (read-out: rtPA IC50 (Table 3C)) it was greater than 2500 nM; on human plasmin (30 minute incubation, read-out: Plasmin IC50 (Table 3C)) it was greater than 2500 nM; on human aPC (read-out: aPC IC50 (Table 3C)) it was greater than 2500 nM.

As to `Cc1ncc(NS(=O)(=O)Cc2ccccc2)c(=O)n1CC(=O)N[C@H](C=O)CCCNC(=N)N` [Compound D, (5-benzylsulfonylamino-2-methyl-6-oxo-1,6-dihydro-1-pyrimidinyl)acetyl-L-argininal, trifluoroacetate salt], the IC50 at human alpha thrombin was 2.32 nM; at Human rt-PA (Activase) (setting [5]), greater than 2500 nM; at human plasmin (setting [6]) it was greater than 2500 nM; at human aPC (setting [7]), greater than 2500 nM.

Take `N=C(N)NCCC[C@@H](C=O)NC(=O)Cn1cccc(NS(=O)(=O)c2cccc(C(F)(F)F)c2)c1=O` [Compound 3-CF3-phenyl, [3-(3-trifluoromethylphenyl)sulfonylamino-2-oxo-1,2-dihydro-pyridyl]acetyl-L-argininal]: the half-inhibitory concentration (IC50) against human alpha thrombin was 3.1 nM; on Human rt-PA (Activase) (setting [2]) it was greater than 2500 nM; on human plasmin (setting [3]) it was greater than 2500 nM; at human aPC (setting [4]), greater than 2500 nM.

Regarding `Cc1ccc(F)cc1S(=O)(=O)Nc1cccn(CC(=O)N[C@H](C=O)CCCNC(=N)N)c1=O` [2-Me, 5-F-phenyl, [3-(2-methyl-5-fluorophenyl)sulfonylamino-2-oxo-1,2-dihydro-pyridyl]acetyl-L-argininal], the half-inhibitory concentration (IC50) against human alpha thrombin is 1.97 nM; at Human rt-PA (Activase) (setting [2]) it was greater than 2500 nM; on human plasmin (setting [3]), greater than 2500 nM; at human aPC (setting [4]) it was greater than 2500 nM.

In the case of `N=C(N)NCCC[C@@H](C=O)NC(=O)Cn1cccc(NS(=O)(=O)c2ccccc2)c1=O` [Compound B, (3-phenylsulfonylamino-2-oxo-1,2-dihydro-pyridyl)acetyl-L-argininal], the IC50 is 0.98 nM on human alpha thrombin, greater than 2500 nM on Human rt-PA (Activase) (setting [5]), greater than 2500 nM at human plasmin (setting [6]) and greater than 2500 nM on human aPC (setting [7]).

`COc1ccc(OC)c(S(=O)(=O)Nc2ccc(C)n(CC(=O)N[C@H](C=O)CCCNC(=N)N)c2=O)c1` [Compound 126C, 3-[(2,5-dimethoxyphenyl)sulfonylamino-6-methyl-2-oxo-1,2-dihydro-pyridyl]acetyl-L-argininal]: the 50% inhibitory concentration (IC50) is 0.519 nM against human alpha thrombin and greater than 2500 nM on human plasmin (setting [1]). The “rtPA IC50 (Table 3B)” value on Human rt-PA (Activase) is “inactive”. For the same compound, the “aPC IC50 (Table 3B)” value on human aPC was “inactive”.

`COc1ccc(OC)c(S(=O)(=O)Nc2cccn(CC(=O)N[C@H](C=O)CCCNC(=N)N)c2=O)c1` [Compound 121E, [3-(2,5-dimethoxyphenyl)sulfonylamino-2-oxo-1,2-dihydropyridyl]acetyl-L-argininal]: the half-inhibitory concentration (IC50) at human alpha thrombin is 0.597 nM; at human plasmin (setting [1]), greater than 2500 nM. Besides, on Human rt-PA (Activase), the “rtPA IC50 (Table 3B)” value was “inactive”. Besides, the “aPC IC50 (Table 3B)” value on human aPC is “inactive”.

As to `Cc1ccccc1S(=O)(=O)Nc1cccn(CC(=O)N[C@H](C=O)CCCNC(=N)N)c1=O` [Compound 2-Me-phenyl, [3-(2-methylphenyl)sulfonylamino-2-oxo-1,2-dihydropyridyl]acetyl-L-argininal], the IC50 is 1.4 nM on human alpha thrombin, greater than 2500 nM on Human rt-PA (Activase) (setting [2]), greater than 2500 nM at human plasmin (setting [3]) and greater than 2500 nM on human aPC (setting [4]).

For `CS(=O)(=O)Nc1c(CCc2ccccc2)ccn(CC(=O)N[C@H](C=O)CCCNC(=N)N)c1=O` [Compound 134B, [3-methylsulfonylamino-4-(2-phenylethyl)-2-oxo-1,2-dihydropyridyl]acetyl-L-argininal], the IC50 against human alpha thrombin was 7.95 nM; on Human rt-PA (Activase) (read-out: rtPA IC50 (Table 3B)), greater than 2500 nM; on human plasmin (read-out: Plasmin IC50 (Table 3B)), greater than 2500 nM. Moreover, on human aPC, the “aPC IC50 (Table 3B)” value is “inactive”.

For `N=C(N)NCCC[C@@H](C=O)NC(=O)Cn1cccc(NS(=O)(=O)c2ccccc2C(F)(F)F)c1=O` [Compound 2-CF3-phenyl], the half-maximal inhibitory concentration (IC50) is 5.6 nM against human alpha thrombin, greater than 2500 nM on Human rt-PA (Activase) (setting [2]), greater than 2500 nM at human plasmin (setting [3]) and greater than 2500 nM on human aPC (setting [4]).

Source of the values: US6342504B1, “Aromatic heterocyclic derivatives as enzyme inhibitors” (priority 1994, dated 2002).
